Experimental data: ChEMBL document CHEMBL3228002, “Sulfonated catecholamide analogues of enterobactin as iron sequestering agents” (J Med Chem, 1979)

Experiment: Iron sequestering activity of the compound assessed as [Fe(H2O)6]3+ formation at 10^-5 M at pH 7.4 by spectrophotometrically in presence of 10^-6 M total iron concentration

Structure (SMILES)	pM
O=C(NCc1cc(CNC(=O)c2cc(S(=O)(=O)O)cc(O)c2O)cc(CNC(=O)c2cc(S(=O)(=O)O)cc(O)c2O)c1)c1cc(S(=O)(=O)O)cc(O)c1O	29.4
O=C(NCc1cc(S(=O)(=O)O)cc(O)c1O)c1cc(C(=O)NCc2cc(S(=O)(=O)O)cc(O)c2O)cc(C(=O)NCc2cc(S(=O)(=O)O)cc(O)c2O)c1	25.1
O=C(N[C@H]1COC(=O)[C@@H](NC(=O)c2cccc(O)c2O)COC(=O)[C@@H](NC(=O)c2cccc(O)c2O)COC1=O)c1cccc(O)c1O	35.5
O=C(NCc1cc(CNC(=O)c2cccc(O)c2O)cc(CNC(=O)c2cccc(O)c2O)c1)c1cccc(O)c1O	29.1
O=C(NCCCCN(CCCNC(=O)c1cc(S(=O)(=O)O)cc(O)c1O)C(=O)c1cc(S(=O)(=O)O)cc(O)c1O)c1cc(S(=O)(=O)O)cc(O)c1O	28.5
CN(C)C(=O)c1cc(S(=O)(=O)O)cc(O)c1O	19.2
CC(=O)N(O)CCCCCNC(=O)CCC(=O)N(O)CCCCCNC(=O)CCC(=O)N(O)CCCCCN	26.6
